The results in this text go back to ChEMBL document CHEMBL1133360, “Design, synthesis, and biological activity of a cyclic peptide: an inhibitor of HIV-1 tat-TAR interactions in human cells” (Bioorg Med Chem Lett, 2000).

A short description of test [1]: Inhibitory activity of compound was tested against transcriptional activation by Tat protein in human cells. It counts as functional, cell-based.
For test [2], the species on record is Homo sapiens. Nature of the test: Percent of Tat-activation inhibited at 500 uM of the compound. It counts as functional.

Where a SMILES comes first, the peptide text is derived from it. [ ]: non-standard residue; d: D form.

In general, IC50 refers to the concentration that inhibits the measured activity by half. A higher IC50 goes with weaker potency. The compound `NCCCC[C@H](N)C(=O)N[C@H](CCCCN)C(=O)N[C@@H](CC(N)=O)C(=O)O` (H-Lys-[dK]-Asn-OH) displayed a 50% inhibitory concentration (IC50) in test [1] of approximately 50 nM.
The term inhibition denotes the drop in the measured response relative to a control, in per cent. Lower therefore signals little suppression. On to `NCCCC[C@@H]1NC(=O)[C@@H](N)CCCCNC(=O)CC[C@@H](C(=O)O)NC(=O)[C@H](CC(N)=O)NC(=O)[C@@H](CCCCN)NC1=O`, for which the inhibition in test [2] is more than 90%. Also, the 50% inhibitory concentration (IC50) in test [1] is approximately 40 nM.
